Data on nine molecules can be found in patent publication US12037322B2, “AHR agonists” (Eli Lilly and Company, priority 2021, dated 2024).

SMILES strings stand for the structures.

In general, EC50 refers to the concentration giving half of the maximal effect.

In the experiment the target is T1, hAHR (Homo sapiens, UniProt P35869).
T1 construct: expressed in transfected cells
T1 sequence (P35869 11-848): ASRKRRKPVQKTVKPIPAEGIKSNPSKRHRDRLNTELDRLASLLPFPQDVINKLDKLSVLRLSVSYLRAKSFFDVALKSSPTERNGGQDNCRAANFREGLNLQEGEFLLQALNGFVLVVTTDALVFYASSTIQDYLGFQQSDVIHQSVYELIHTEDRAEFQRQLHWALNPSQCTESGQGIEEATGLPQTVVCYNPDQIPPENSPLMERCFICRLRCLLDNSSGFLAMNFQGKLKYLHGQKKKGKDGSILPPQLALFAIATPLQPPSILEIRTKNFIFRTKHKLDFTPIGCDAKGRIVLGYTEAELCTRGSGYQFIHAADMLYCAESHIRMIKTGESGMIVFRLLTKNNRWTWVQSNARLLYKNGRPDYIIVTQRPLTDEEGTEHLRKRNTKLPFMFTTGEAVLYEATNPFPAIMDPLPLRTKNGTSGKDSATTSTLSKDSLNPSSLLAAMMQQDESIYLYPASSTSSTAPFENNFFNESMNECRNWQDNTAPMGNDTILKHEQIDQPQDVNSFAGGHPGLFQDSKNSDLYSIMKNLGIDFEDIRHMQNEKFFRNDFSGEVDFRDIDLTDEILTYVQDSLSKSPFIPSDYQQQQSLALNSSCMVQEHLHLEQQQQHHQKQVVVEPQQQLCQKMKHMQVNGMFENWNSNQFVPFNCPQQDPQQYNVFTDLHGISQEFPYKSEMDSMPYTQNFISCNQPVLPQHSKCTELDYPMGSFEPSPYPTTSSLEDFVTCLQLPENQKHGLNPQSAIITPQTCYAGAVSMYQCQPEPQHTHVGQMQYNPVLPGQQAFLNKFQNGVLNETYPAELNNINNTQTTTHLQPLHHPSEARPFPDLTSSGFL
Put plainly: hAHR nuclear translocation assay. Type of experiment: cell-based. The conditions noted are these: Jump-In T-REx HEK293 cells expressing AhR-EGFP; 45 min incubation; ratio of EGFP intensity in nuclear over cytosol; 20-point curve. The method in brief: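 Agonist potency derived by 4-parameter logistic fit of nuclear/cytosolic EGFP intensity ratio, imaged in fixed HEK293 cells expressing doxycycline-inducible AhR-EGFP. Cells saw compound for 45 min at 37° C in DMEM plus 0.1% BSA; 20-point twofold dilutions, 0.2% DMSO final.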

As to `Cn1c2c(cc(C(=O)Nc3ncccn3)c1=O)CCCC2` [Example 103, 1-Methyl-2-oxo-N-pyrimidin-2-yl-5,6,7,8-tetrahydroquinoline-3-carboxamide], the EC50 was 27 nM.
Turning to `Cn1c2c(cc(C(=O)Nc3ccccc3)c1=O)CCCC2` [Example 104, 1-Methyl-2-oxo-N-phenyl-5,6,7,8-tetrahydroquinoline-3-carboxamide], the EC50 was 0.502 nM.
Take `Cn1c2c(cc(C(=O)Nc3ccccc3)c1=O)CC(C)(C)CC2` [Example 105, 1,6,6-Trimethyl-2-oxo-N-phenyl-7,8-dihydro-5H-quinoline-3-carboxamide]: the EC50 stood at 0.64 nM.
Regarding `Cn1c2c(cc(C(=O)Nc3ccccc3)c1=O)COCC2` [Example 106, 1-Methyl-2-oxo-N-phenyl-7,8-dihydro-5H-pyrano[4,3-b]pyridine-3-carboxamide], the EC50 came out at 25.9 nM.
Consider `CCN1CCc2c(cc(C(=O)Nc3ccccc3)c(=O)n2C)C1` [Example 107, 6-Ethyl-1-methyl-2-oxo-N-phenyl-7,8-dihydro-5H-1,6-naphthyridine-3-carboxamide], for which the EC50 was 108 nM.
With `Cn1c2c(cc(C(=O)Nc3ccccc3)c1=O)CCC2` [Example 108, 1-Methyl-2-oxo-N-phenyl-6,7-dihydro-5H-cyclopenta[b]pyridine-3-carboxamide], the EC50 came out at 2.5 nM.
Regarding `Cn1c2c(cc(C(=O)Nc3ccccc3)c1=O)CCCCC2` [Example 109, 1-Methyl-2-oxo-N-phenyl-6,7,8,9-tetrahydro-5H-cyclohepta[b]pyridine-3-carboxamide], the EC50 came out at 1.04 nM.
With `Cn1c2c(c(O)c(C(=O)Nc3ccccc3)c1=O)CC(C)(C)CC2` [Example 110, 4-Hydroxy-1,6,6-trimethyl-2-oxo-N-phenyl-7,8-dihydro-5H-quinoline-3-carboxamide], the EC50 is 2.27 nM.
With `CC(C)CCNC(=O)c1c(O)c2c(n(C)c1=O)CCCC2` [Example 111, 4-Hydroxy-N-isopentyl-1-methyl-2-oxo-5,6,7,8-tetrahydroquinoline-3-carboxamide], the EC50 amounted to 10.3 nM.
